{
  "source": "patent US20250302784A1",
  "about": "“MYOBLAST PROLIFERATION PROMOTER AND MYOBLAST-PROLIFERATION PROMOTING COMPOSITION, AND MUSCLE ATROPHY INHIBITOR AND MUSCLE-ATROPHY INHIBITING COMPOSITION” (MARUZEN PHARMACEUTICALS CO., LTD., priority 2022, published 2025)",
  "key": {"[1]": {"system": "skeletal muscle-derived myoblasts (C2C12) of mice", "test": "Test for myoblast-proliferation promotion effect (MTT assay)", "format": "cell-based", "conditions": "for Myoblast proliferation promotion rate (%): cultured 2 days, MTT, rate = A/B×100 vs cells without test sample", "method": "A test on a myoblast proliferation effect of the compound represented by Structural Formula (1) (using the compound available from Sigma-Aldrich) was performed according to the following testing method.\nAfter culturing skeletal muscle-derived myoblasts (C2C12) of mice in a Dulbecco's modified eagle medium (DMEM) containing 10% FBS, the cells were collected by trypsinization. The collected cells were diluted with a 5% FBS-containing DMEM so that a concentration of the cells was to be 2.0×10^4 cells/mL. Then, the dilution was seeded by 100 μL per well in a 96-well plate, followed by culturing for 6 hours. After completing the culture, a test sample dissolved in a 5% FBS-containing DMEM (see Table 1 below for the final concentration) was added by 100 μL per well, followed by culturing for 2 days. Even in the case where the test sample was not added, culturing was performed in the same manner except that the test sample was not added.\nThe myoblast-proliferation promotion effect was measured using an MTT assay. After completing the culture, the medium was removed, and MTT dissolved in a PBS buffer solution (PBS(−)) at a final concentration of 0.4 mg/mL was added by 100 μL per well. After culturing for 2 hours, blue formazan generated within the cells was extracted with 100 μL of 2-propanol. After the extraction, absorbance at a wavelength of 570 nm was measured. In addition, absorbance at a wavelength of 650 nm was measured as turbidity. The difference between the absorbance at the wavelength of 570 nm and the absorbance at the wavelength of 650 nm was used to determine an amount of blue formazan generated.\nThe myoblast proliferation promotion rate (%) was calculated from the obtained results according to the following equation.\nMyoblast proliferation promotion rate (%)=A/B×100\nIn the equation above, A and B are as follows. • A: An amount of blue formazan generated in the cells to which the test sample was added. • B: An amount of blue formazan generated in the cells to which the test sample was not added."}, "[2]": {"system": "rat model of disuse muscle atrophy", "test": "Test for muscle atrophy inhibition effect in rat model of disuse muscle atrophy (hindlimb suspension)", "format": "in vivo, Wistar rats", "method": "Whether muscle atrophy was inhibited by orally administering the compound represented by Structural Formula (1) (using the compound available from Cayman Chemical) to a rat model of disuse muscle atrophy for 14 days was tested according to the following testing method.\nSeven week-old male Wistar (Crlj: WI) rats were acquired from Charles River Laboratories Japan, Inc., and were bred in the environment where a temperature was 23±3° C. and the humidity was 55±15% and in a cycle of 12 hours in light and 12 hours in dark. The rats were acclimated for one week before use, and were allowed to freely intake a solid feed (CRF-1, available from Oriental Yeast Co., Ltd.) and tap water.\nAfter one week of acclimation, the Wistar rats were randomly divided into groups of eight. The rats were bred for 14 days in the state where the tail of each rat was held with clips so that the rat's hind legs were raised above the floor according to the method of Morey-Holton E R et al. During the breeding period, the rats were allowed to move around within a case with their forelimbs, and were allowed to freely intake water and a feed.\nThe test groups were (1) a normal group (without hindlimb suspension), (2) a control group (hindlimb suspension+0 mg/kg of the compound represented by Structural Formula (1)), (3) a group with the compound represented by Structural Formula (1) (hindlimb suspension+125 mg/kg of the compound represented by Structural Formula (1)).\nThe compound represented by Structural Formula (1) was dissolved in water, and the solution was administered by oral gavage every day for 14 days. Water was administered to the control group.\nAt the end of the test, the rats were euthanized by exsanguination under isoflurane anesthesia. Then, the soleus muscles were removed and the muscle weight was measured. In Table 2, the soleus muscle weight is an average value."}},
  "data": [
    {"smiles": "O=C(O)CCc1ccc(O)c(O)c1", "note": "[3,4-dihydroxyhydrocinnamic acid]", "values": [
      {"measurement": "Myoblast-proliferation promotion effect (in words)", "setting": "[1]; conclusion from Table 1", "result": "excellent myoblast-proliferation promotion effect"},
      {"measurement": "Myoblast proliferation promotion rate (%)", "setting": "[1]; test sample 25 μmol/L", "result": 106.4, "unit": "%"},
      {"measurement": "Myoblast proliferation promotion rate (%)", "setting": "[1]; test sample 100 μmol/L", "result": 108.0, "unit": "%"},
      {"measurement": "Soleus muscle weight", "setting": "[2]; hindlimb-suspended male Wistar rats, 125 mg/kg oral gavage daily for 14 days, average value (normal group 359.1, control group 139.3)", "result": 151.3},
      {"measurement": "Soleus muscle weight compared to the control group (in words)", "setting": "[2]; hindlimb-suspended rats, 125 mg/kg oral, 14 days", "result": "increased compared to the control group"},
      {"measurement": "Muscle atrophy inhibition (in words)", "setting": "[2]; rat model of disuse muscle atrophy, 125 mg/kg oral, 14 days", "result": "inhibited muscle atrophy"}
    ]}
  ]
}
